Eight molecules from patent US10017574B2, “Methods, kits and devices for promoting cardiac regeneration” (Yeda Research and Development Co. Ltd., priority 2015, dated 2018) can be followed below.

Test [1] has as its system caErbb2 CMs. Description: Dedifferentiation (RUNX1 expression, sarcomeric disassembly) of P7 caErbb2 CMs treated in vitro with inhibitors or factors. In kind it is cell-based, mouse. Particulars: P7 neonatal caErbb2 heart cells, treated in vitro for 2 days. The text has this:
(§1) Doxycycline inducible CM restricted overexpression of a constitutively active Erbb2 (caErbb2) was generated by crossing TetRE-caErbb2 mouse line^65 (a B6SJLF1/J transgenic line in which this mutated Erbb2 is placed under the control of a minimal CMV promoter and the tetracycline-responsive element) with αMHC-tTA^66, which expresses the tetracycline-responsive transcriptional activator (tTA) under the control of the human alpha myosin heavy chain promoter (αMHC) promoter (see FIG. 10A). αMHC-tTA strain was created in the FVB background and then the line was backcrossed to C57BL/6. Doxycycline (DOX, Harlan Laboratories) was administered in the food to repress transgene expression.
(§2) Primary cardiomyocytes were isolated from 1-day-old (P1) and 7-days-old (P7) mice using a neonatal dissociation kit (gentleMACS, Germany), according to the manufacturer's instructions, and cultured in gelatin-coated (0.1%, G1393, Sigma, St. Louis, Mo., USA) wells with DMEM/F12 medium supplemented with L-glutamine, Na-pyruvate, Non-essential amino acids, penicillin, streptomycin, 5% Horse serum and 10% FBS (hereafter referred to as “complete-medium”) at 37° C. and 5% CO2.
(§3) In cultures isolated from hearts of P7 ctrl and caErbb2-cOE animals, the cells were seeded in the aforementioned complete-medium for 48 hours, in the presence of the following substances: MEK/MAPKK kinase inhibitor regarded in the text as ERK inhibitor (2 μM, PD0325901, Tocris Bioscience, Bristol, UK), AKT1/2 inhibitor (5 μM, AKT inhibitor VIII, ApexBio, Houston, Tex., USA), GSK3β inhibitor (10 μM, CHIR-99021, Axon Medchem, Netherlands), β-Catenin inhibitor (10 μM, IWR-1, Sigma, St. Louis, Mo., USA), p38 inhibitor (10 μM SB202190, Merck Millipore, Massachusetts, USA), Periostin (500 ng/ml; BioVendor, Brno Czech Republic), FGF1 (100 ng/ml; R&D Systems, MN, USA). The dissolving reagents were added to unstimulated samples. Subsequently, cells were fixed in 4% PFA and stained for markers of interest.
(§4) Heart sections underwent deparaffinization, fixation in 4% PFA (5 minutes) and microwave antigen retrieval in EDTA or citric acid buffer, followed by gradual chilling. Then heart sections and cultured cells were processed in the following manner. Samples were permeabilized with 0.5% Triton X-100 in PBS for 5 minutes and blocked with 5% bovine serum albumin (BSA, Sigma, St. Louis, Mo., USA) in PBS containing 0.1% Triton for 1 hour at room temperature. Then samples were incubated 1 hour at room temperature or overnight at 4° C. with the following antibodies diluted in 3% BSA blocking solution: anti-Troponin T (1:200, ab33589, Abcam, Cambridge, Mass., USA), anti-Troponin I (1:200, ab47003, Abcam, Cambridge, Mass., USA) or anti-NKX2.5 (1:200, ab35842, Abeam, Cambridge, Mass., USA) Abs were used to identify CMs. Anti-Ki67 antibody (1:200, 275R, Cell Marque, Austin, Tex., USA) anti-BRDU antibody (1:100, G3G4, DSHB, Iowa City, Iowa, USA), anti-phosphorylated-Histone3 (pH3) antibody (1:200, SC-8656-R, Santa Cruz Biotechnology Inc., Santa Cruz, Calif., USA) and anti-Aurora B (1:100, 611082, BD Transduction Laboratories, Lexington, Ky., USA) were used to analyze cell cycle re-entry, DNA synthesis, karyokinesis and cytokinesis, respectively. Other Abs used in the study: anti-ErbB2 (1:50, sc-284, Santa Cruz Biotechnology Inc., Santa Cruz, Calif., USA), anti-αSMA (1:50, A5691, Sigma, St. Louis, Mo., USA), RUNX1 (1:200, ab92336, Abcam, Cambridge, Mass., USA), anti-DAB2 (1:200, sc-13982, Santa Cruz Biotechnology Inc., Santa Cruz, Calif., USA), anti-β-Catenin (1:200, ab32572, Abcam, Cambridge, Mass., USA). After three washes with PBS, 10 minutes each, samples were stained for 1 hour at room temperature or overnight at 4° C. with fluorescent secondary antibodies (Abeam, Cambridge, Mass., USA) followed by 10 minutes of DAPI (4,6-diamidino-2-phenylindole dihydrochloride) staining for nuclei visualization. […]

Test [2] deals with caErbb2 CMs. Description: Cell-cycle re-entry (Ki67) of P7 caErbb2 CMs treated in vitro with inhibitors or factors. In kind it is cell-based, mouse. The following applies: P7 neonatal caErbb2 heart cells, treated in vitro for 2 days.
Text: as §1, §2, §3, §4

The subject of test [3] is caErbb2 CMs. Nature of the test: Hypertrophy (cell area) of P7 caErbb2 CMs treated in vitro with inhibitors or factors. In kind it is cell-based, mouse. The following applies: P7 neonatal caErbb2 heart cells, treated in vitro for 2 days.
Text: as §1, §2, §3, §4

For the next test, the system named is neonatal Erbb2-cKO CMs. Description: NRG1-stimulated proliferation of cultured CMs from P1 Erbb2-cKO mice (Ki67, pH3, newly formed CMs). Particulars: CMs isolated from P1 Erbb2-cKO mice, NRG1 in vitro. In kind it is cell-based, mouse. The text has this:
CM-restricted deletion of Erbb2 (Erbb2-cKO) was generated by crossing Erbb2^flox/flox 41 to Erbb2^lacZ/+; αMHC-Cre mice (see FIG. 2A). The Erbb2^lacZ/+ mice used in this study carry an allele that encodes a nonfunctional ErbB2-galactosidase fusion protein lacking the tyrosine kinase domain^42. In some experiments, addition of ROSA26-tdTomato allele to this system has been used to label cardiac muscle cell lineage in Erbb2-cKO mice. Erbb2^flox/flox and Erbb2^lacZ/+ mice were maintained on a C57BL/6 background. […]
(§5) Heart sections underwent deparaffinization, fixation in 4% PFA (5 minutes) and microwave antigen retrieval in EDTA or citric acid buffer, followed by gradual chilling. […] Slides were mounted with Immu-mount (9990412, Thermo scientific, MA, USA) and viewed under a fluorescence microscope (Nikon Intensilight or Nikon eclipse 90i, Nikon, Düsseldorf, Germany) or spinning disk confocal microscope (Carl Zeiss, Thornwood, N.Y., USA) as specified in the figure legends.

The next test relates to P1 and P7 mouse CMs. Nature of the test: NRG1-stimulated proliferation of cultured P1 and P7 cardiomyocytes (Ki67, BrdU, pH3, AuroraB immunofluorescence, counting newly formed CMs). The following applies: various NRG1 doses, 72 hours. In kind it is cell-based. The method, then:
as §2
In experiments involving administration of Neuregulin-1b (NRG1, R&D Systems, MN, USA), the cells were allowed to adhere for 48 hours in complete-medium. Subsequently, the medium was replaced with an FBS-deprived complete-medium containing the indicated NRG1 doses for 72 hours. BrdU (10 μM, B5002, Sigma, St. Louis, Mo., USA) was introduced along with NRG1. Cells were fixed in 4% PFA and stained for markers of interest.
as §5

The next test relates to β-Catenin in caErbb2 CMs. Nature of the test: β-Catenin immunofluorescence in P7 caErbb2 heart cells treated in vitro with inhibitors. In kind it is cell-based, mouse. The following applies: P7 neonatal caErbb2 heart cells, 10 μM.
Text: as §1
Primary cardiomyocytes were isolated from 1-day-old (P1) and 7-days-old (P7) mice using a neonatal dissociation kit (gentleMACS, Germany), according to the manufacturer's instructions, and cultured in gelatin-coated (0.1%, G1393, Sigma, St. Louis, Mo., USA) wells with DMEM/F12 medium supplemented with L-glutamine, Na-pyruvate, Non-essential amino acids, penicillin, streptomycin, 5% Horse serum and 10% FBS (hereafter referred to as “complete-medium”) at 37° C. and 5% CO2. […]

Entries after “also recorded” stand apart in the source; their conditions may differ.

For the molecule `O=C(NOC[C@H](O)CO)c1ccc(F)c(F)c1Nc1ccc(I)cc1F` [ERK inhibitor, PD0325901], in the test on caErbb2 CMs [1], the “caErbB2-induced CM dedifferentiation (sarcomeric disassembly and RUNX1 expression)” value is “completely suppressed”. In addition, in the test with caErbb2 CMs [2], the “caErbB2-induced CM proliferation / cell cycle re-entry (Ki67)” value was “completely suppressed”. Further, in the test on caErbb2 CMs [3], the “caErbB2-induced hypertrophic response (CM cell area)” value is “reduced the hypertrophic response”.
Take `O=c1[nH]c2ccccc2n1C1CCN(Cc2ccc(-c3nc4cc5[nH]cnc5cc4nc3-c3ccccc3)cc2)CC1` [AKT inhibitor, AKT inhibitor VIII]: the “caErbB2-induced CM dedifferentiation (sarcomeric disassembly and RUNX1 expression)” value with caErbb2 CMs [1] is given as “promoted massive dedifferentiation”. Moreover, the “caErbB2-induced CM proliferation / cell cycle re-entry (Ki67)” value with caErbb2 CMs [2] is on record as “moderate effect”. The “caErbB2-induced hypertrophic response (CM cell area)” value in the test on caErbb2 CMs [3] is listed as “reduced hypertrophic response”.
In the case of `O=C(Nc1cccc2cccnc12)c1ccc(N2C(=O)[C@@H]3[C@H](C2=O)[C@@H]2C=C[C@H]3C2)cc1` [β-Catenin inhibitor, IWR-1], the “RUNX1 expression in caErbb2 CMs” value with caErbb2 CMs [1] is “reduced”. The “caErbB2-induced CM proliferation / cell cycle re-entry (Ki67)” value with caErbb2 CMs [2] was “without significantly affecting”. Besides, the “caErbB2-induced hypertrophic response (CM cell area)” value with caErbb2 CMs [3] is “without significantly affecting”.
For `Oc1ccc(-c2nc(-c3ccncc3)c(-c3ccc(F)cc3)[nH]2)cc1` [p38 inhibitor, SB202190], the “RUNX1 expression in caErbb2 CMs” value in the test with caErbb2 CMs [1] was “increased”. Also, the “caErbB2-induced CM proliferation / cell cycle re-entry (Ki67)” value in the test with caErbb2 CMs [2] is recorded as “enhanced”. Further, in the test on caErbb2 CMs [3], the “caErbB2-induced hypertrophic response (CM cell area)” value is “No obvious effects”.
Take FGF1: in the test with caErbb2 CMs [1], the “RUNX1 expression in caErbb2 CMs” value was “p38 inhibition, in contrast to FGF1 and Periostin, increased RUNX1 expression”. Moreover, in the test with caErbb2 CMs [2], the “caErbB2-induced CM proliferation / cell cycle re-entry (Ki67)” value was “enhanced”. In addition, the “caErbB2-induced hypertrophic response (CM cell area)” value in the test on caErbb2 CMs [3] was “No obvious effects”.
With Neuregulin-1b [NRG1], the “CM proliferation (Ki67, pH3, newly formed CMs)” value in the test on neonatal Erbb2-cKO CMs is given as “unable to induce CM proliferation”. Further, the “CM proliferation (cell cycle activity, DNA synthesis, mitosis, cytokinesis, newly formed CMs)” value is given as “dose-dependent increase” in the test on P1 and P7 mouse CMs (P1 mouse CMs in vitro); “profoundly reduced effects; also recorded: diminished” with P1 and P7 mouse CMs (P7 mouse CMs in vitro).
As for `Cc1c[nH]c(-c2cnc(NCCNc3ccc(C#N)cn3)nc2-c2ccc(Cl)cc2Cl)n1` [GSK3β inhibitor, CHIR-99021], the “RUNX1 expression in caErbb2 CMs” value in the test on caErbb2 CMs [1] is given as “further increased”. In addition, the “caErbB2-induced CM proliferation / cell cycle re-entry (Ki67)” value with caErbb2 CMs [2] is “promoted β-Catenin independent increase in cell cycle activity”. For the same molecule, in the test on β-Catenin in caErbb2 CMs, the “β-Catenin accumulation in caErbb2 CMs” value was “further increased”.

B1: Periostin (protein, UniProt Q15063 22-836, looked up)
Periostin: NNHYDKILAHSRIRGRDQGPNVCALQQILGTKKKYFSTCKNWYKKSICGQKTTVLYECCPGYMRMEGMKGCPAVLPIDHVYGTLGIVGATTTQRYSDASKLREEIEGKGSFTYFAPSNEAWDNLDSDIRRGLESNVNVELLNALHSHMINKRMLTKDLKNGMIIPSMYNNLGLFINHYPNGVVTVNCARIIHGNQIATNGVVHVIDRVLTQIGTSIQDFIEAEDDLSSFRAAAITSDILEALGRDGHFTLFAPTNEAFEKLPRGVLERIMGDKVASEALMKYHILNTLQCSESIMGGAVFETLEGNTIEIGCDGDSITVNGIKMVNKKDIVTNNGVIHLIDQVLIPDSAKQVIELAGKQQTTFTDLVAQLGLASALRPDGEYTLLAPVNNAFSDDTLSMDQRLLKLILQNHILKVKVGLNELYNGQILETIGGKQLRVFVYRTAVCIENSCMEKGSKQGRNGAIHIFREIIKPAEKSLHEKLKQDKRFSTFLSLLEAADLKELLTQPGDWTLFVPTNDAFKGMTSEEKEILIRDKNALQNIILYHLTPGVFIGKGFEPGVTNILKTTQGSKIFLKEVNDTLLVNELKSKESDIMTTNGVIHVVDKLLYPADTPVGNDQLLEILNKLIKYIQIKFVRGSTFKEIPVTVYTTKIITKVVEPKIKVIEGSLQPIIKTEGPTLTKVKIEGEPEFRLIKEGETITEVIHGEPIIKKYTKIIDGVPVEITEKETREERIITGPEIKYTRISTGGGETEETLKKLLQEEVTKVTKFIEGGDGHLFEDEEIKRLLQGDTPVRKLQANKKVQGSRRRLREGRSQ
notes: Periostin protein (500 ng/ml; BioVendor)
As for B1, in the test on caErbb2 CMs [1], the “RUNX1 expression in caErbb2 CMs” value is “p38 inhibition, in contrast to FGF1 and Periostin, increased RUNX1 expression”. In addition, the “caErbB2-induced CM proliferation / cell cycle re-entry (Ki67)” value in the test on caErbb2 CMs [2] is “enhanced”. In addition, the “caErbB2-induced hypertrophic response (CM cell area)” value with caErbb2 CMs [3] is recorded as “No obvious effects”.
